From patent US10618901B2 (GlaxoSmithKline Intellectual Property Development Limited, priority 2014, dated 2020) come the findings set out here.

Where two headings read alike, the source gives them in different places.

The target in this assay is T1, LRRK2 Ser935 phosphorylation in SH-SY5Y cells over-expressing recombinant full length LRRK2 (Homo sapiens, UniProt Q5S007).
T1 construct: A BacMam virus expressing full length recombinant LRRK2 was purchased from Invitrogen; host or cells: SH-SY5Y (BacMam transduction)
T1 sequence (Q5S007 whole entry): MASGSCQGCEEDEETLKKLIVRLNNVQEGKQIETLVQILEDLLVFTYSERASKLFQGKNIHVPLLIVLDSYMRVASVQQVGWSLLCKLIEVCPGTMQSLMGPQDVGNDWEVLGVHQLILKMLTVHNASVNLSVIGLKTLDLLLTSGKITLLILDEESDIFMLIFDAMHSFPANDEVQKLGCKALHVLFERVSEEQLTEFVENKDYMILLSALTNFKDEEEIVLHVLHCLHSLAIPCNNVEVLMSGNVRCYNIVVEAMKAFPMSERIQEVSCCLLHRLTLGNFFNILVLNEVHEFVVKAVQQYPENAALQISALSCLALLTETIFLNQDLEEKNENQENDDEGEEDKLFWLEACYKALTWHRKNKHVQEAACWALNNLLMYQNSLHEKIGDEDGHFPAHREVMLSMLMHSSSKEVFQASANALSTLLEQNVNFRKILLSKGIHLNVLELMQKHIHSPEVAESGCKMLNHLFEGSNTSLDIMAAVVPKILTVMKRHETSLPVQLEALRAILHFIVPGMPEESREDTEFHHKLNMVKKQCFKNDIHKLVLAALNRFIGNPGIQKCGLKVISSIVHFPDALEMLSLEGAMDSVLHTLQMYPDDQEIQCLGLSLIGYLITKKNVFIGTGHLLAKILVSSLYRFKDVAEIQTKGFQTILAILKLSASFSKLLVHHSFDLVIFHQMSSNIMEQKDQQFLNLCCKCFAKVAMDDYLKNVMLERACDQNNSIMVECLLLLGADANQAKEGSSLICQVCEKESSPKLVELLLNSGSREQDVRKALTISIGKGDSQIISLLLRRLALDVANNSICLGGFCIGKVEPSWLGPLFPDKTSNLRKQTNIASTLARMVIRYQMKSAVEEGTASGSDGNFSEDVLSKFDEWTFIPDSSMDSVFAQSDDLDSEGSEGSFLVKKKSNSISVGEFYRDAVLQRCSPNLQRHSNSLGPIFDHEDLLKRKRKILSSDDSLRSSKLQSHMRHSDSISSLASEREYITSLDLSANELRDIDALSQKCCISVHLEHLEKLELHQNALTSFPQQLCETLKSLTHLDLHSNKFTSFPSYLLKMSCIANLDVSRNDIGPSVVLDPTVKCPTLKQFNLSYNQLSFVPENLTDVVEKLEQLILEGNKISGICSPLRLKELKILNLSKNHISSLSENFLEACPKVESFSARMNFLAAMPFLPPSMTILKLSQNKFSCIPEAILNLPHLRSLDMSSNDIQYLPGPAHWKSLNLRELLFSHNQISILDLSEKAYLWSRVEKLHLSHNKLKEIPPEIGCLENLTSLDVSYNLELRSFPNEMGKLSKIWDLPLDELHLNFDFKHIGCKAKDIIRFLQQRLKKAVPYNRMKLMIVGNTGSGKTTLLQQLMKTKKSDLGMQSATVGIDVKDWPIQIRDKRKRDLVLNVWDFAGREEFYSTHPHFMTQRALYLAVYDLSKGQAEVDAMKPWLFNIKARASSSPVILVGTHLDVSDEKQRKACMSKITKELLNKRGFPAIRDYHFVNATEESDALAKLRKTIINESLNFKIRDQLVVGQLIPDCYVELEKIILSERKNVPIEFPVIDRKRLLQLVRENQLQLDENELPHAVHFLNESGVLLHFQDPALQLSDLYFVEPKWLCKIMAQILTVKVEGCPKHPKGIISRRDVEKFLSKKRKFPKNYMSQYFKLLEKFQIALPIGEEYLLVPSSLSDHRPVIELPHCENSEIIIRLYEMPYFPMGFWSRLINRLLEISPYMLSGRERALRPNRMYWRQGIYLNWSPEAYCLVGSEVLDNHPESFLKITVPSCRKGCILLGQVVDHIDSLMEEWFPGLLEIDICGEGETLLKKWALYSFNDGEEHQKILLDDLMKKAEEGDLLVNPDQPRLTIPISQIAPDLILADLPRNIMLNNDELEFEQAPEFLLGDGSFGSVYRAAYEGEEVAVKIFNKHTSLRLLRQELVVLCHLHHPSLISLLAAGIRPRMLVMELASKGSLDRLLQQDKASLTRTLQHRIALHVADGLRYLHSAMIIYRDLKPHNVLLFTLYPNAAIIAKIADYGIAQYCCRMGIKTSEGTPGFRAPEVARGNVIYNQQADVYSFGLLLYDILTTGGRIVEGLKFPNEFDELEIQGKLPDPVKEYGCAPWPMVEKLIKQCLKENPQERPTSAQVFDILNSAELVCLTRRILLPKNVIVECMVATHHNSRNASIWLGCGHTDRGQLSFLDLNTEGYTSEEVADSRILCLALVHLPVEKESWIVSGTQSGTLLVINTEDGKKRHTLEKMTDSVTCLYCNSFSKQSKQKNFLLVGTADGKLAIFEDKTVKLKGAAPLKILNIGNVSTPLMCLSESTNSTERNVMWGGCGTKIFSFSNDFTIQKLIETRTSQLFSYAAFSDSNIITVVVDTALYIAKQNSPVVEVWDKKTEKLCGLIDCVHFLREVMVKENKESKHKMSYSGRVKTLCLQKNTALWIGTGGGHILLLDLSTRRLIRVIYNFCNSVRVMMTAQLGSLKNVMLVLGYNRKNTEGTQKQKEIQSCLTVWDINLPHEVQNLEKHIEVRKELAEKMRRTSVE
Briefly: Recombinant cellular LRRK2 AlphaScreen assay. Type of assay: cell-based. Put shortly:
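SH-SY5Y cells transduced with BacMam full-length LRRK2 (MOI 50, 24 h) were treated with compound, top final 10 uM, for 60 min at 37° C. Lysates were assayed by AlphaScreen for pSer935 and total LRRK2. Dose-response fitted to a sigmoidal model.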
In general terms: Alpha assays give light when donor and acceptor beads are brought close together.

Setting [1] is: read-out: pIC50 in the recombinant cellular LRRK2 alphaScreen assay (converted).
The mark [2] stands for this setting: LRRK2 Ser935 phosphorylation, 60 minutes, read-out: recombinant cellcular LRRK2 alphaScreen assay (pIC50) (converted).
The mark [3] stands for this setting: LRRK2 Ser935 phosphorylation, 60 minutes.

`CCOc1nc(Nc2cnn(C3CCCC3(C)O)c2C)nc2[nH]ccc12` (racemic) [Example E70, Trans-2-(4-((4-ethoxy-7H-pyrrolo-[2,3-d]pyrimidin-2-yl)amino)-5-methyl-1H-pyrazol-1-yl)-1-methylcyclopentanol]: the IC50 under setting [1] is at most 100 nM.

For the compound `CCOc1nc(Nc2cnn(C3CCN(C)C3)c2C)nc2[nH]ccc12` (single isomer, unassigned) [Example E14, 4-ethoxy-N-(5-methyl-1-(1-methylpyrrolidin-3-yl)-1H-pyrazol-4-yl)-7H-pyrrolo-[2,3-d]-pyrimidin-2-amine], the IC50 under setting [2] is 63.1 nM and the IC50 under setting [1] is at most 100 nM.

In the case of `CCOc1nc(Nc2cnn(C3CCN(C4COC4)C3)c2C)nc2[nH]ccc12` (single isomer, unassigned) [Example E67, 4-ethoxy-N-(5-methyl-1-(1-(oxetan-3-yl)-pyrrolidin-3-yl)-1H-pyrazol-4-yl)-7H-pyrrolo-[2,3-d]pyrimidin-2-amine], under setting [1], the IC50 was at most 100 nM.

As for `CCOc1nc(Nc2cnn([C@H]3CCN(C4COC4)C[C@@H]3F)c2Cl)nc2[nH]ccc12` (single isomer, unassigned) [Example E104], the IC50 is, setting by setting: under setting [2], 31.6 nM; under setting [1], at most 100 nM.

Consider `CCOc1nc(Nc2cnn([C@@H]3CCN(C4COC4)C[C@H]3F)c2Cl)nc2[nH]ccc12` (single isomer, unassigned) [Example E105], for which the IC50 was 25.1 nM under setting [2] and at most 100 nM under setting [1].

Consider `CCOc1nc(Nc2cnn(C3CCOCC3C)c2C)nc2[nH]ccc12` (single isomer, unassigned) [Example E113, (cis)-4-ethoxy-N-(5-methyl-1-(3-methyltetrahydro-2H-pyran-4-yl)-1H-pyrazol-4-yl)-7H-pyrrolo[2,3-d]pyrimidin-2-amine], for which the IC50 reads like this: under setting [2], 25.1 nM; under setting [1], at most 100 nM.

For `CCOc1nc(Nc2cnn(C3CN(C)CCC3(F)F)c2C)nc2[nH]ccc12` (single isomer, unassigned) [Example E121, N-(1-(4,4-difluoro-1-methylpiperidin-3-yl)-5-methyl-1H-pyrazol-4-yl)-4-ethoxy-7H-pyrrolo[2,3-d]pyrimidin-2-amine], the IC50 runs as follows: under setting [2], 0.631 nM; under setting [1], at most 100 nM.

Consider `CCOc1nc(Nc2cnn(C3CN(C4COC4)CCC3(F)F)c2Cl)nc2[nH]ccc12` (single isomer, unassigned) [Example E124, N-(5-chloro-1-(4,4-difluoro-1-(oxetan-3-yl)piperidin-3-yl)-1H-pyrazol-4-yl)-4-ethoxy-7H-pyrrolo[2,3-d]pyrimidin-2-amine], for which the IC50 under setting [2] is 0.794 nM.

For the compound `CCOc1nc(Nc2cnn(C3CCN(C4COC4)CC3(F)F)c2Cl)nc2[nH]ccc12` (single isomer, unassigned) [Example E134, N-(5-chloro-1-(3,3-difluoro-1-(oxetan-3-yl)piperidin-4-yl)-1H-pyrazol-4-yl)-4-ethoxy-7H-pyrrolo[2,3-d]pyrimidin-2-amine], the IC50 under setting [2] is 5.01 nM.

Take `CCOc1nc(Nc2cnn(C3CN(C4COC4)CCO3)c2Cl)nc2[nH]ccc12` (single isomer, unassigned) [Example E141, N-(5-chloro-1-(4-(oxetan-3-yl)morpholin-2-yl)-1H-pyrazol-4-yl)-4-ethoxy-7H-pyrrolo[2,3-d]pyrimidin-2-amine]: the IC50 is, setting by setting: under setting [2], 15.8 nM; under setting [1], at most 100 nM.

Consider `CCOc1nc(Nc2cnn(CC(C)(C)O)c2C)nc2[nH]ccc12` [Example E3, 1-(4-((4-ethoxy-7H-pyrrolo-[2,3-d]pyrimidin-2-yl)amino)-5-methyl-1H-pyrazol-1-yl)-2-methylpropan-2-ol], for which the IC50 runs as follows: under setting [2], 79.4 nM; under setting [1], at most 100 nM.

Regarding `CCOc1nc(Nc2cnn(CCOC)c2Cl)nc2[nH]ccc12` [Example E21, N-(5-chloro-1-(2-methoxyethyl)-1H-pyrazol-4-yl)-4-ethoxy-7H-pyrrolo-[2,3-d]-pyrimidin-2-amine], the IC50 under setting [1] was at most 100 nM.

With `CCOc1nc(Nc2cnn(C3CCOCC3)c2C2CC2)nc2[nH]ccc12` [Example E44, N-(5-cyclopropyl-1-(tetrahydro-2H-pyran-4-yl)-1H-pyrazol-4-yl)-4-ethoxy-7H-pyrrolo-[2,3-d]pyrimidin-2-amine], the IC50 reads like this: under setting [2], 63.1 nM; under setting [1], at most 100 nM.

With `CCOc1nc(Nc2cnn(CCN3CCOCC3)c2C)nc2[nH]ccc12` [Example E45, 4-ethoxy-N-(5-methyl-1-(2-morpholinoethyl)-1H-pyrazol-4-yl)-7H-pyrrolo-[2,3-d]pyrimidin-2-amine], the IC50 under setting [2] was 20 nM and the IC50 under setting [1] was at most 100 nM.

As to `CCOc1nc(Nc2cnn(C3CC(O)C3)c2C)nc2[nH]ccc12` (stereo not shown) [Example E52, 3-(4-((4-ethoxy-7H-pyrrolo-[2,3-d]-pyrimidin-2-yl)-amino)-5-methyl-1H-pyrazol-1-yl)cyclo-butanol], the IC50 by setting is: under setting [2], 12.6 nM; under setting [1], at most 100 nM.

Take `CCOc1nc(Nc2cnn(C3CC(N4CCOCC4)C3)c2C)nc2[nH]ccc12` (stereo not shown) [Example E86, 4-ethoxy-N-(5-methyl-1-(3-morpholinocyclobutyl)-1H-pyrazol-4-yl)-7H-pyrrolo[2,3-d] pyrimidin-2-amine]: the IC50 is 39.8 nM under setting [2] and at most 100 nM under setting [1].

In the case of `CCOc1nc(Nc2cnn(CCN3CCO[C@H](C(F)F)C3)c2C)nc2[nH]ccc12` [Example E100, (S)—N-(1-(2-(2-(difluoromethyl)morpholino)ethyl)-5-methyl-1H-pyrazol-4-yl)-4-ethoxy-7H-pyrrolo[2,3-d]pyrimidin-2-amine], the IC50 reads like this: under setting [2], 31.6 nM; under setting [1], at most 100 nM.

Consider “cis-3-(4-((4-ethoxy-7H-pyrrolo[2,3-d]pyrimidin-2-yl)amino)-5-methyl-1H-pyrazol-1-yl)cyclopentanol [Example E56]”, for which the “recombinant cellcular LRRK2 alphaScreen assay (pIC50)” value under setting [3] is 7.8.

As to “trans-2-(4-((4-ethoxy-7H-pyrrolo-[2,3-d]pyrimidin-2-yl)amino)-5-methyl-1H-pyrazol-1-yl)-cyclopentanol [Example E40]”, the “recombinant cellcular LRRK2 alphaScreen assay (pIC50)” value under setting [3] amounted to 7.8.

Regarding “trans-2-(4-((4-ethoxy-7H-pyrrolo-[2,3-d]pyrimidin-2-yl)amino)-5-methyl-1H-pyrazol-1-yl)-cyclopentanol [Example E41]”, the “recombinant cellcular LRRK2 alphaScreen assay (pIC50)” value under setting [3] was determined as 7.8.

Regarding “trans-2-(5-chloro-4-((4-ethoxy-7H-pyrrolo-[2,3-d]-pyrimidin-2-yl)amino)-1H-pyrazol-1-yl)-cyclopentanol [Example E37]”, the “recombinant cellcular LRRK2 alphaScreen assay (pIC50)” value under setting [3] was found to be 7.6.

Regarding “trans-2-(5-chloro-4-((4-ethoxy-7H-pyrrolo-[2,3-d]-pyrimidin-2-yl)amino)-1H-pyrazol-1-yl)cyclopentanol [Example E38]”, the “recombinant cellcular LRRK2 alphaScreen assay (pIC50)” value under setting [3] came to 7.6.
